# Counter-ions that a name gives are not always drawn.
# System: shunt pathway
# Assay: Test Code 036 (C-Shunt inhibitor), lysis of fragile human erythrocytes in autologous serum, cobra venom factor activated
# Format: biochemical
# Set-up: key: N=Negative (no activity)
# Conditions: serial two-fold dilution assay; higher well number indicates higher activity; N = negative
# From the text: An active inhibitor protects C2 from C1 and C4; (ii) Test Code 035 (C3-C9 inhibitor)--This test determines the ability of the late components of human complement (C3-C9) to lyse EAC 142 in the presence of appropriate dilutions of the test compound. An active inhibitor products EAC 142 from lysis by human C3-C9; (iii) Test Code 036 (C-Shunt inhibitor)--In this test human erythrocytes rendered fragile are lysed in autologous serum via the shunt pathway activated by cobra venom factor in the presence of appropriate dilutions of the test compound. Inhibition of the shunt pathway results in failure of lysis; (iv) Forssman Vasculitis Test--Here, the well known complement dependent lesion, Forssman vasculitis, is produced in guinea pigs by intradermal injection of rabbit anti-Forssman antiserum. The lesion is measured in terms of diameter, edema and hemorrhage and the extent to which a combined index of these is inhibited by prior intraperitoneal injection of the test compound at 200 mg/kg is then reported, unless otherwise stated; (v) Forssman Shock Test--Lethal shock is produced in guinea pigs by an i.v. injection of anti-Forssman antiserum and the harmonic mean death time of treated guinea pigs is compared with that of simultaneous controls; (vi) Complement Level Reduction Test--In this test, the above dosed guinea pigs, or others, are bled for serum and the complement level is determined in undiluted serum by the capillary tube method of U.S. Pat. No. 3,876,376 and compared to undosed control guinea pigs; and (vii) Cap 50 Test--Here, appropriate amounts of the test compound are added to a pool of guinea pig serum in vitro, after which the undiluted serum capillary tube assay referred to above is run. The concentration of compound inhibiting 50% is reported.
row,SMILES,Shunt Inhibition 036* Wells
1,"Cc1ccc(NC(=O)Nc2ccc(C)c(S(=O)(=O)Nc3ccc(C)c(S(=O)(=O)Nc4cc(S(=O)(=O)[O-])cc5cc(S(=O)(=O)[O-])cc(S(=O)(=O)[O-])c45)c3)c2)cc1S(=O)(=O)Nc1ccc(C)c(S(=O)(=O)Nc2cc(S(=O)(=O)[O-])cc3cc(S(=O)(=O)[O-])cc(S(=O)(=O)[O-])c23)c1.[Na+].[Na+].[Na+].[Na+].[Na+].[Na+] [8,8'-[Ureylenebis[[[(6-methyl-3,1-phenylene)sulfonyl]imino]-[[(6-methyl-3,1-phenylene)sulfonyl]imino]]]di-1,3,6-naphthalenetrisulfonic acid, hexasodium salt]",N
2,"O=C(Nc1cccc(S(=O)(=O)Nc2cccc(S(=O)(=O)Nc3cc(S(=O)(=O)O)cc4cc(S(=O)(=O)O)cc(S(=O)(=O)O)c34)c2)c1)Nc1cccc(S(=O)(=O)Nc2cccc(S(=O)(=O)Nc3cc(S(=O)(=O)O)cc4cc(S(=O)(=O)O)cc(S(=O)(=O)O)c34)c2)c1 [8,8'-[Ureylenebis[[(1,3-phenylenesulfonylimino)-1,3-phenylenesulfonyl]imino]]di-1,3,6-naphthalenetrisulfonic acid, hexasodium salt]",+1 Wells
3,"Cc1ccc(S(=O)(=O)Nc2ccc(S(=O)(=O)[O-])c3cc(S(=O)(=O)[O-])cc(S(=O)(=O)[O-])c23)cc1NS(=O)(=O)c1cccc(NC(=O)Nc2cccc(S(=O)(=O)Nc3cc(S(=O)(=O)Nc4ccc(S(=O)(=O)[O-])c5cc(S(=O)(=O)[O-])cc(S(=O)(=O)[O-])c45)ccc3C)c2)c1.[Na+].[Na+].[Na+].[Na+].[Na+].[Na+] [8,8'-[Ureylenebis[(m-phenylenesulfonylimino)(4-methyl-3,1-phenylenesulfonyl)imino]]di-1,3,5-naphthalenetrisulfonic acid, hexasodium salt]",N

# From patent US4155930A, “Ureylene phenylene anionic naphthalenesulfonic acids” (American Cyanamid Company, priority 1978, dated 1979)
